In test [1] the test system is RS (RNA, aptamer) GGGAGACGCACCUGAAUCAACAUACGUGAACGCGACUCUAUCUCCCCAAAUUAGGCGUCAGAUAGCGGCACGGAGUUACACGAUCCGUAACUAGUCGCGUCAC
Description: stopped-flow fluorescence, global fit. The conditions noted are these: K+ 125 mM, Mg2+ 5 mM; 40 mM HEPES, pH 7.4; association rate, two-step model 5; k-1 2.9±0.7, k2 23±1 s^-1.

Test [2] concerns preRS (RNA, aptamer) GGGAGACGCAACUGAAUGAACAUAAGUGAACGCGACUCUAUCUCCCUAAACUAGGAGUCAUAUAGCGGCACGGAGUUACACGAUCCGUAACUAGUCGCGUCAC
Description: stopped-flow fluorescence, global fit. The conditions noted are these: K+ 125 mM, Mg2+ 5 mM; 40 mM HEPES, pH 7.4; association rate, two-step model 5; k-1 5.4±0.4, k2 12.1±0.7 s^-1.

Test [3] concerns A (CFX aptamer A) (RNA, aptamer) GGGAGACGCAACAGACUAGGUUGUGACUGCUUAGGCAGUUGUGGACGGCUAAGCCCACCAGAGGUCCGUAACUAGUCGCGUCAC
Description: stopped-flow fluorescence, global fit. The conditions noted are these: K+ 125 mM, Mg2+ 5 mM; 40 mM HEPES, pH 7.4; association rate, reversible two-step model 4; k-1 1.6±0.2, k2 4±0.2, k-2 2.3±0.2 s^-1.

Test [4] has the same test system. Description: fluorescence titration (ligand quenching). The conditions noted are these: K+ 125 mM, Mg2+ 10 mM; 40 mM HEPES, pH 7.4, 25 °C; 50 nM CFX; Mg2+ series.

On to `O=C(O)c1cn(C2CC2)c2cc(N3CCNCC3)c(F)cc2c1=O`, for which the k1 stood at 7.62 ± 0.11 µM/s in test [1], 4.31 ± 0.06 µM/s in test [2] and 10 ± 0.2 µM/s in test [3]. In test [4], the KD is recorded as ~ 13 nM.

For the origin of these results see paper PMC8053125 (2021).
